Marks after values point to notes of the source that are not given here.
How the values were obtained:
hD1 receptor [1] = target: T1, hD1 receptor (Homo sapiens, UniProt P21728); assay: [35S]-GTPγS binding in HEK293-hD1 cell membranes; type: biochemical
T1 construct: expressed in transfected cells
Protocol: (§1) For [^35S]-GTPγS-binding, cell pellets were resuspended in 10 mM Tris-HCl/1 mM EDTA, pH 7.4, homogenized in a glass-teflon homogenizer and centrifuged for 15 min (40,000 × g, 4°C). Supernatant was discarded, and pellet was washed twice with ice-cold Tris-HCl/EDTA buffer and finally resuspended in 50 mM Tris-HCl, 4 mM MgCl2, 1 mM EDTA, 250 mM sucrose, pH 7.4, and stored at -80°C. The protein content was determined according to the Bradford method [30] with gamma immunoglobulin as standard.

hD1 receptor [2] = target: T1, hD1 receptor; assay: Radioligand competition binding at hD1 receptors (cell membranes); conditions: for higher affinities for D1-like than for D2-like receptors: binding (table 2)
hD1 receptor [3] = target: T1, hD1 receptor; assay: Intracellular [cAMP], CRE-luciferase reporter gene assay, HEK293-hD1 cells; type: cell-based
hD2L receptor [4] = target: T2, hD2L receptor (Homo sapiens, UniProt P14416); assay: Intracellular [cAMP], CRE-luciferase reporter gene assay, HEK293-hD2L cells; type: cell-based; conditions: read-out: pKi app [cAMP]i hD2L (converted)
T2 construct: expressed in transfected cells

hD2L receptor [5] = target: T2, hD2L receptor; assay: Intracellular [Ca2+] fluorescence assay, HEK293-hD2L cells; type: cell-based
hD4.4 receptor = target: T3, hD4.4 receptor (Homo sapiens, UniProt P21917); assay: Radioligand competition binding at hD4.4 receptors (cell membranes); conditions: read-out: pKi hD4.4 (converted)
T3 sequence (P21917 1-419): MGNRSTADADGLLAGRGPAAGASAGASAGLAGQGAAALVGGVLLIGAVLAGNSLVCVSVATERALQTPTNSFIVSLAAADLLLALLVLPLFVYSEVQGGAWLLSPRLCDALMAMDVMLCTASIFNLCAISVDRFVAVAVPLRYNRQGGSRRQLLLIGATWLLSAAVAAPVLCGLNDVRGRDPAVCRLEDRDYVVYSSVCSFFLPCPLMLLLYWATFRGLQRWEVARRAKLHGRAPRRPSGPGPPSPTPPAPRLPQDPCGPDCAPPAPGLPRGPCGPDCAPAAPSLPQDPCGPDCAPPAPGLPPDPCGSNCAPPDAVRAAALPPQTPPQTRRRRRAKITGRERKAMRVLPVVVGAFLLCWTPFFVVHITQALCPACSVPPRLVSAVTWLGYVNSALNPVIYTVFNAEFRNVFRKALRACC

h5HT2A receptor = h5HT2A receptor (Homo sapiens, UniProt P28223); assay: Radioligand competition binding at h5HT2A receptors (cell membranes); conditions: read-out: pKi h5HT2A (converted)
hD2L receptor [6] = target: T2, hD2L receptor; assay: [35S]-GTPγS binding in HEK293-hD2L cell membranes; type: biochemical; conditions: read-out: pKi app [35S]-GTPγS binding hD2L (converted)
Protocol: as §1

hD2L receptor [7] = target: T2, hD2L receptor; assay: Radioligand competition binding at hD2L receptors (cell membranes); conditions: read-out: pKi hD2L (converted)
hD3 receptor = target: T4, hD3 receptor (Homo sapiens, UniProt P35462); assay: Radioligand competition binding at hD3 receptors (cell membranes); conditions: read-out: pKi hD3 (converted)
T4 construct: expressed in transfected cells

hD1 receptor [8] = target: T1, hD1 receptor; assay: Intracellular [Ca2+] fluorescence assay, HEK293-hD1 cells; type: cell-based
hD5 receptor = target: T5, hD5 receptor (Homo sapiens, UniProt P21918); assay: Radioligand competition binding at hD5 receptors (cell membranes); conditions: read-out: pKi hD5 (converted)
T5 construct: expressed in transfected cells

hD1 receptor [9] = target: T1, hD1 receptor; conditions: radioligand binding literature data; cited from earlier work
hD2L receptor [10] = target: T2, hD2L receptor; conditions: radioligand binding literature data; cited from earlier work
[11] = Schild and Clark analyses, Ca2+ assay

T2 sequence (P14416 whole entry): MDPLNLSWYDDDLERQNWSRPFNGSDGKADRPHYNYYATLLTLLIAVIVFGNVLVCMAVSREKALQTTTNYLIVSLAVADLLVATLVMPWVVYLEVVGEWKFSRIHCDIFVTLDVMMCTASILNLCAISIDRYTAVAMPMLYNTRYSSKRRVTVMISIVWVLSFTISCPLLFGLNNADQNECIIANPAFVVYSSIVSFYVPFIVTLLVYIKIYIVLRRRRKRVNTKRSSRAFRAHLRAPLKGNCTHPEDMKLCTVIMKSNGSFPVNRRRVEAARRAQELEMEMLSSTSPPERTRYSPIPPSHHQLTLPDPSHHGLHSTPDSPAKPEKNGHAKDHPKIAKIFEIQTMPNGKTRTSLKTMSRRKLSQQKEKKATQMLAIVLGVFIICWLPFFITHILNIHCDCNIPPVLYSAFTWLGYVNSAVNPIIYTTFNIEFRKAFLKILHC
T1 sequence (P21728 whole entry): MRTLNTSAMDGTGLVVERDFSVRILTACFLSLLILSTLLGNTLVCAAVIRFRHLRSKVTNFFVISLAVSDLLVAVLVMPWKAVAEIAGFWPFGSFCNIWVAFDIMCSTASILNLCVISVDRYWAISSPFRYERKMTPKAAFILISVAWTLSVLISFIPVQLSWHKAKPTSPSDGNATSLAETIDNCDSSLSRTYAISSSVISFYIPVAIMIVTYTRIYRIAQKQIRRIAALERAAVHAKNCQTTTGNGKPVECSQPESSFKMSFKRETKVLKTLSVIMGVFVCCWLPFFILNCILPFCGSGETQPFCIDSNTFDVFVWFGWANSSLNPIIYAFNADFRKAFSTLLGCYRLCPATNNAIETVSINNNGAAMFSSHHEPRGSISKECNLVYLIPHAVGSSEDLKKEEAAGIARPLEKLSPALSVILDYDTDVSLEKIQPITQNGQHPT
h5HT2A receptor, sequence (P28223 whole entry): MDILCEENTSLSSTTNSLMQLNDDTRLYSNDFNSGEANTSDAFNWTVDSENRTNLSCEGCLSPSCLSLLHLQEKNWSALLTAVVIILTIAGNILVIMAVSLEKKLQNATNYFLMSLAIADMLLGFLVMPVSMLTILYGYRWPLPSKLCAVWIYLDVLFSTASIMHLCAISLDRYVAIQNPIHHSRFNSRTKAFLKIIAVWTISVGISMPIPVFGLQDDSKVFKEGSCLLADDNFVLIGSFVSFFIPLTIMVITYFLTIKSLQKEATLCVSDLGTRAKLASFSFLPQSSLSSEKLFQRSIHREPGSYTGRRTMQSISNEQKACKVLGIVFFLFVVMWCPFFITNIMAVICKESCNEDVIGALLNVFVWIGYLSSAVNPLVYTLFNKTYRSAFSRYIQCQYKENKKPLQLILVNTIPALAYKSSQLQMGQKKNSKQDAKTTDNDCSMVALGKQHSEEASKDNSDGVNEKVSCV
T4 sequence (P35462 whole entry): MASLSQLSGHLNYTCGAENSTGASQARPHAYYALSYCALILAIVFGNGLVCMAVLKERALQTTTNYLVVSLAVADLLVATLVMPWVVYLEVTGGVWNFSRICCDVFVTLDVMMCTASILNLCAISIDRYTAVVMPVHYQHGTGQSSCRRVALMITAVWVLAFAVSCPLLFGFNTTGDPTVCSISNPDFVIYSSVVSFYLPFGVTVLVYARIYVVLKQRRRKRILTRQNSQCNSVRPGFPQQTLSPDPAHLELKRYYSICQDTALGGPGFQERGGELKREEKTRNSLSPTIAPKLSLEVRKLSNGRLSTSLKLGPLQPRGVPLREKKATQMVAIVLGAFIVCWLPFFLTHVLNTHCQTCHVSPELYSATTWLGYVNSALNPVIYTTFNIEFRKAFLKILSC
T5 sequence (P21918 whole entry): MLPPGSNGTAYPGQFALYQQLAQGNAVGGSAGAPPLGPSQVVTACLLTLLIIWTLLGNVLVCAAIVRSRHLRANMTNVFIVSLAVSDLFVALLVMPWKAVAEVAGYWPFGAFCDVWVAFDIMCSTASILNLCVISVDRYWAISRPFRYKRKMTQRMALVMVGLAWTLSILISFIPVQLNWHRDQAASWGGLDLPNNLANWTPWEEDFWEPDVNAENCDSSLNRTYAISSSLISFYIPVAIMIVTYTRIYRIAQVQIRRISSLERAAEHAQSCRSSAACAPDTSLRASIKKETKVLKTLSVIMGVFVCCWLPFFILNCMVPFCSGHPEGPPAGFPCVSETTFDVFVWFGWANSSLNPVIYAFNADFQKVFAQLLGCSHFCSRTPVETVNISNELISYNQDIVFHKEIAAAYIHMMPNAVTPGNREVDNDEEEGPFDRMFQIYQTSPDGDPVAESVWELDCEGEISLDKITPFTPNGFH

For `Oc1cc2c(cc1O)[C@H]1c3ccccc3CN[C@@H]1CC2` (racemic) [Dihydrexidine, reference compound], the “increase in [35S]-GTPγS binding compared with SKF38393” value (hD1 receptor [1]; membrane preparations from HEK293-hD1 cells, 1 μM GDP) was “significantly higher increase”.
Work on `BrCCN1CCc2ccccc2Cc2[nH]c3ccccc3c2CC1` [AHAD11] yielded a Ki (hD1 receptor [2]; read-out: pKi hD1 (converted)) of 1510 nM.
`CN1CCc2ccccc2Cc2[nH]c3ccccc3c2CC1` [LE300] gave an IC50 (hD1 receptor [3]; read-out: IC50 [cAMP] hD1 (antagonist)) of 123 ± 31.1 nM, a Ki (hD1 receptor [3]; read-out: pKi app [cAMP]i hD1 (converted)) of 28.2 nM and a Ki (hD2L receptor [4]) of 1.86 nM. The Ki (hD2L receptor [5]; read-out: pKi app [Ca2+]i hD2L (converted)) was 11.7 nM, the Ki-D1/Ki-D2 (hD1 receptor [2]) was 0.16 and the “fold higher Ki using Krebs-HEPES instead of TRIS-HCl buffer, hD1” value (hD1 receptor [2]) was ~ 4 fold. The Ki (hD1 receptor [2]; 0.2 nM [3H]SCH23390, Krebs-HEPES buffer pH 7.4, n = 3, read-out: Ki (Krebs-HEPES) hD1) was 10 ± 1.15 nM, the Ki (hD1 receptor [2]; 0.2 nM [3H]SCH23390, TRIS-HCl pH 7.4, n = 3, read-out: Ki (TRIS-HCl) hD1) was 2.36 ± 0.13 nM and the Ki (hD1 receptor [2]; heterologous competition, 0.2 nM [3H]SCH23390, Krebs-HEPES buffer pH 7.4, mean ± SEM, n ≥ 3, read-out: pKi hD1 (converted)) was 10.5 nM. It also gave a Ki (hD4.4 receptor) of 347 nM, a Ki (h5HT2A receptor) of 0.224 nM and a Ki (hD2L receptor [6]) of 7.24 nM. The Ki (hD2L receptor [7]) was 64.6 nM, the Ki (hD1 receptor [1]; read-out: pKi app [35S]-GTPγS binding hD1 (converted)) was 17.8 nM and the Ki (hD3 receptor) was 331 nM. The “pKi app [Ca2+]i hD1” value (hD1 receptor [8]) was 7.22 ± 0.15, the IC50 (hD1 receptor [8]; read-out: IC50 [Ca2+] hD1 (antagonist)) was 718 ± 168 nM and the Ki (hD5 receptor) was 10.2 nM.
With `CN1CCc2ccccc2Cc2cc(O)c(O)cc2CC1` [LE403] the “higher affinities for D1-like than for D2-like receptors” value (hD1 receptor [2]) was “up to 33 fold”, the Ki (h5HT2A receptor) was 3.98 nM and the Ki (hD3 receptor) was 724 nM.
In the case of `CN1CCc2ccccc2Cc2ccc(O)cc2CC1` [LE404], the “nature of antagonism at D2L receptors” value (hD2L receptor [5]; [11]) is reported as “competitive antagonistic behaviour”, the “higher affinities for D1-like than for D2-like receptors” value (hD1 receptor [2]) is reported as “up to 33 fold” and the Ki (h5HT2A receptor) is reported as 1.62 nM. The “nature of antagonism at D1 receptors” value (hD1 receptor [8]; [11]) was “competitive antagonistic behaviour” and the “D1 preference over D2L in Ca2+ studies” value (hD1 receptor [8]; apparent functional Ki, Ca2+ (table 5)) was 3 fold.
In the case of `CN(C)CCC=C1c2ccccc2C=Nc2ccc(Cl)cc21` [RMI-81582, 2-chloro-11-(3-dimethylaminopropylidene)morphanthridine], the “Ki-D1/Ki-D2 (calculated from literature)” value (hD1 receptor [9]) is given as 0.05^a) and the “Ki-D2/Ki-5HT2A (calculated from literature)” value (hD2L receptor [10]) is given as 31.6^a).
